Experimental data from PMC8007834, “Anti-estrogenic and anti-aromatase activities of citrus peels major compounds in breast cancer” (Scientific Reports, 2021).
In brackets after ≈: the same amount, converted by molar mass.

How the values were obtained:
[1] = SRB cytotoxicity assay on normal HFB4 cells; assay type: cell-based, human; conditions: human, normal HFB4 cells, ± SD, read-out: IC50 values, cytotoxic effect on HFB4
Procedure: (§1) The cytotoxic activity of the ethanolic extracts of the peels along with the isolated major phenolics was tested against two human estrogen-dependent breast cancer cell lines, namely, MCF-7 and T47D, as well as the normal human HFB4 cells for assessment of toxicity, using the sulforhodamine B (SRB) assay. The assessment was performed in the National Cancer Institute in Egypt (NCI). The half maximal inhibitory concentration (IC50) values were then calculated from three independent experiments, three replicates each for each sample.

[2] = tested on: MCF-7; experiment: SRB cytotoxicity assay on MCF7; assay type: cell-based, human; conditions: for IC50: Homo sapiens, MCF7, ± SD, read-out: IC50 values, cytotoxic effect on MCF7
Procedure: (§2) The assessment was performed in the National Cancer Institute in Egypt (NCI). The half maximal inhibitory concentration (IC50) values were then calculated from three independent experiments, three replicates each for each sample.

[3] = tested on: T47D; experiment: SRB cytotoxicity assay on T47D; assay type: cell-based, human; conditions: ± SD; for IC50: Homo sapiens, T47D, read-out: IC50 values, cytotoxic effect on T47D
Procedure: as §2

[4] = tested on: Ehrlich ascites carcinoma (EAC) solid tumor; experiment: Ehrlich ascites carcinoma (EAC) solid tumor model, tumor volume; assay type: in vivo, mice; conditions: 19th day after treatment; quercetin 100, naringenin 50, naringin 100 mg/kg i.p. daily
Source text: In order to evaluate the anticancer effect of the active isolates (quercetin, naringenin and naringin) and their potential to decrease aromatase levels in tumours, an animal model of Ehrlich ascites carcinoma (EAC) solid tumour was used followed by aromatase ELISA assay as will be described later. Swiss albino female mice (20-25 g) were used for the experiment. EAC cells were collected from the ascitic fluid of a female Swiss albino mouse bearing a 10-day old ascitic tumor where approximately 2.5 × 10^6 cells were transplanted, i.m. in the left thigh of female mice. When tumors became palpable (approximately 200-300 mm^3 in volume), treatment was initiated. Forty EAC-tumour bearing mice were randomly allocated into the following groups (n = 10): (1) PC group: positive control group that received only drug vehicle, (2) Qrt.-treated group: Mice were treated with a daily dose of 100 mg/kg of quercetin[30] i.p., (3) Narn.-treated group: Mice were treated with a daily dose of 50 mg/kg of naringenin, i.p.[31], and (4) Nar.-treated group: […] Treatment doses were given daily excluding Fridays and Saturdays. Tween 80 (1%) was used as a vehicle. Mice were sacrificed under brief anaesthesia at the 20th day after starting treatment and tumors were collected for further analysis. Tumor volume was calculated using a digital caliper at days 0, 4, 7, 10, 13, 16, and 19 after treatment, according to the following equation[33]: […]

[5] = tested on: Immature female Swiss albino mice; experiment: In vivo anti-estrogenic activity assay (with estradiol); conditions: for reversal of estradiol-induced vaginal cornification / reduction in uterine weight compared to estradiol alone: 30 mg/kg i.p. plus estradiol; for reduction in uterine weight compared to estradiol alone: 7 days; for day on which vaginal opening reached 100% / day on which vaginal opening started (delay up to day): flavonoid 30 mg/kg i.p. plus estradiol 12.5 µg/kg s.c., estradiol alone as positive control
Procedure: (§3) Immature female Swiss albino mice (8-13 g) were obtained from the animal house of the Faculty of Pharmacy, The British University in Egypt. All experimental procedures were conducted in compliance with the Animal Research: Reporting of In Vivo Experiments (ARRIVE) guidelines and the National Institutes of Health guide for the care and use of Laboratory animals (NIH Publication No. 85-23, revised 2011) and were approved by the Ethics Committee, Faculty of Pharmacy, The British University in Egypt (Ex-2101). All experiments were performed during the light phase of a light/dark cycle that was started 1 week after acclimatization. The room temperature was adjusted at 25 ± 2 °C. Mice had free access to food and water during the experiments. The experimental design was adopted from[27],[28]. The mice were randomly divided into 9 groups (7-8 mice each) as follows: Group 1: Negative control (NC) receiving only olive oil, s.c.; Group 2: […] For estrogenic activity, Group 3: Genistein phytoestrogen positive control (Gein.) treated group; Group 4: Quercetin (Qrt.) treated group; Group 5: Naringenin (Narn.) treated group and Group 6: Naringin (Nar.) treated group. For anti-estrogenic activity, estradiol was given after treatments by 6 h for Groups 7, 8 and 9 representing […]., respectively. All treatments including genistein were given at a dose of 30 mg/kg dissolved in Tween 80 (1%), i.p., for 7 days. The animals' weights were recorded daily to ensure the safety of the doses used. On the 7th day, the animals were sacrificed, the morphological appearance of the livers was observed, and the uteri were also isolated and weighed. The in vivo estrogenic and anti-estrogenic activities were assessed. The vaginal opening on each day of the study was checked as a sign of puberty. On the 7th day, vaginal swab was taken from the opened vagina to examine the cornification level under light microscope (4× lens). The uteri were excised and weighed after sacrification of mice under anesthesia.

[6] = tested on: Immature female Swiss albino mice; experiment: In vivo estrogenic activity assay; conditions: 30 mg/kg i.p.
Procedure: as §3

[7] = tested on: Aromatase; experiment: Aromatase protein levels in EAC solid tumors (ELISA); assay type: in vivo, mice; conditions: for aromatase levels in tumors, lower than positive control group: ELISA on tumor homogenates, day 20, quercetin 100, naringenin 50, naringin 100 mg/kg i.p.
Source text: EAC cells were collected from the ascitic fluid of a female Swiss albino mouse bearing a 10-day old ascitic tumor where approximately 2.5 × 10^6 cells were transplanted, i.m. in the left thigh of female mice. When tumors became palpable (approximately 200–300 mm^3 in volume), treatment was initiated. Forty EAC-tumour bearing mice were randomly allocated into the following groups (n = 10): (1) PC group: positive control group that received only drug vehicle, (2) Qrt.-treated group: Mice were treated with a daily dose of 100 mg/kg of quercetin[30] i.p., (3) Narn.-treated group: Mice were treated with a daily dose of 50 mg/kg of naringenin, i.p.[31], and (4) Nar.-treated group: Mice were treated with a daily dose of 100 mg/kg of naringin, i.p.[32]. Treatment doses were given daily excluding Fridays and Saturdays. Tween 80 (1%) was used as a vehicle. Mice were sacrificed under brief anaesthesia at the 20th day after starting treatment and tumors were collected for further analysis.
Excised tumors were homogenized as 10% (w/v) in phosphate buffered saline. Aromatase concentration was then determined in tissue homogenates using Mouse Aromatase ELISA kit (MyBiosource, USA), according to the manufacturer’s instructions. Optical density equivalent to aromatase levels in samples was determined at 450 nm using a microplate reader.

[8] = tested on: uterine weight; design: method as in PMID 25337190; conditions: cited from earlier work
[9] = design: method as in PMID 21964193; conditions: naringin 40 and naringenin 80 mg/kg, respectively; cited from earlier work
[10] = tested on: estrogen-induced uterine weight; conditions: 30 mg/rat co-treated with estradiol (0.5 µg/rat); cited from earlier work
[11] = tested on: HFB4 cells; experiment: SRB cytotoxicity assay on normal HFB4 cells; assay type: cell-based, human; conditions: ± SD
Procedure: as §1

[12] = biological target: T1, Aromatase enzyme (CYP19) (Homo sapiens, UniProt P11511); experiment: In vitro aromatase inhibition assay (dibenzylfluorescein); assay type: biochemical; conditions: ± SD
T1 construct: purchased BD Biosciences, San Jose, CA
T1 sequence (P11511 1-503): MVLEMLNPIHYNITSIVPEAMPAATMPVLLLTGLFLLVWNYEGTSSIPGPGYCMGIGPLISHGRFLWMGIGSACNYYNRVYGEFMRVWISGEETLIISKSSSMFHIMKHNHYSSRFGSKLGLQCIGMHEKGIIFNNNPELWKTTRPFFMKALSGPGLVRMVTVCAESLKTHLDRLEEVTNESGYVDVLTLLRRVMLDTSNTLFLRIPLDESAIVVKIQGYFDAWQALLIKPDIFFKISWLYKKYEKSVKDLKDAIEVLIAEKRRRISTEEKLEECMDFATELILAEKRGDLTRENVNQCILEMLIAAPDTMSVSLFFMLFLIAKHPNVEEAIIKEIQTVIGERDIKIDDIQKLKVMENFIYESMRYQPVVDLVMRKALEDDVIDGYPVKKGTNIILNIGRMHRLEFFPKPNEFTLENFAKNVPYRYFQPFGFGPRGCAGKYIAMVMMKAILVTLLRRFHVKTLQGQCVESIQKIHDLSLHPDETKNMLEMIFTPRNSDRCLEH
Procedure: Aromatase inhibition was quantified by measuring the fluorescent intensity of fluorescein, the hydrolysis product of dibenzylfluorescein, by aromatase, as previously described[29]. In brief, the test substance (10 µL) was pre-incubated with the NADPH regenerating system (90 µL of 2.6 mM NADP^+, 7.6 mM glucose 6-phosphate, 0.8 U/mL glucose 6-phosphate dehydrogenase, 13.9 mM MgCl2, and 1 mg/mL albumin in 50 mM potassium phosphate, pH 7.4) for 10 min at 37 °C before 100 µL of the enzyme and substrate mixture [4 pmol/well enzyme (CYP19, BD Biosciences, San Jose, CA), 0.4 µM dibenzylfluorescein, and 4 mg/mL albumin in 50 mM potassium phosphate, pH 7.4] were added. Then, the reaction mixture was incubated for 30 min at 37 °C to allow aromatase to generate the product and quenched with 75 µL of 2 N NaOH. After the reaction was terminated, shaking was done for 5 min followed by incubation for 2 h at 37 °C to enhance the noise/background ratio, then fluorescence was measured at 485 nm (excitation) and 530 nm (emission). Three independent experiments were performed in duplicates, and the average values were used to construct the dose–response curves.

Structure (SMILES): COc1ccc(-c2cc(=O)c3c(OC)c(OC)c(OC)c(OC)c3o2)cc1OC [C1, 5,6,7,8,3′,4′-hexamethoxy flavone]
- IC50 [1]: > 50 µg/mL
- IC50 [2]: > 50 µg/mL
- IC50 [3]: > 50 µg/mL

Structure (SMILES): O=c1c(O)c(-c2ccc(O)c(O)c2)oc2cc(O)cc(O)c12 [C2, 5,7,3′,4′-tetrahydroxy flavonol]
- IC50 [1]: > 50 µg/mL
- decrease in tumor volume compared to positive control [4]: 61.71%
- reversal of estradiol-induced vaginal cornification [5]: not fully reversed
- reduction in uterine weight compared to estradiol alone [5]: 48%
- day on which vaginal opening reached 100% [5]: 4 days
- day on which vaginal opening started (delay up to day) [5]: 2 days
- average uterine weight ([6]; 7 days, no estradiol): 13.0 ± 3.0 mg
- day on which vaginal opening started ([6]; 7 days, no estradiol): 6 days
- reduction in aromatase levels as compared to naringenin ([7]; EAC tumors, ELISA): 26.4%
- reduction in aromatase levels as compared to naringin ([7]; EAC tumors, ELISA): 32%
- aromatase levels in tumors, lower than positive control group [7]: 72.35%
- IC50 [2]: 2.11 ± 0.71 µg/mL (≈ 6.98 µM)
- effect on the uterine weight upon treatment with steroid ([8]; 10 mg/kg): anti-estrogenic effect
- estrogenic effect at higher dose ([8]; 100 mg/kg): potent estrogenic effect
- IC50 [3]: 1.81 ± 0.28 µg/mL (≈ 5.99 µM)

Structure (SMILES): COc1ccc(-c2cc(=O)c3c(O)cc(O[C@@H]4O[C@H](CO[C@@H]5O[C@@H](C)[C@H](O)[C@@H](O)[C@H]5O)[C@@H](O)[C@H](O)[C@H]4O)cc3o2)cc1O [C3, 5,3′-dihydroxy-4′-methoxy flavone-7O-α-L-rhamnopyranosyl (1 → 6)β-D-glucopyranoside]
- IC50 [1]: > 50 µg/mL
- IC50 [2]: > 50 µg/mL
- IC50 [3]: > 50 µg/mL

Structure (SMILES): O=C1CC(c2ccc(O)cc2)Oc2cc(O)cc(O)c21 (centres unmarked) [C4, 5,7,4′-trihydroxy flavanone]
- estrogenic and anti-estrogenic activities [9]: double directional estrogenic and anti-estrogenic activities
- IC50 [1]: > 50 µg/mL
- decrease in tumor volume compared to positive control [4]: 73.26%
- reversal of estradiol-induced vaginal cornification [5]: not fully reversed
- reduction in uterine weight compared to estradiol alone [5]: 58%
- day on which vaginal opening reached 100% [5]: 7 days
- day on which vaginal opening started (delay up to day) [5]: 5 days
- average uterine weight ([6]; 7 days, no estradiol): 16.0 ± 3.7 mg
- IC50 [2]: 1.12 ± 0.09 µg/mL (≈ 4.11 µM)
- effect on estrogen-induced uterine weight [10]: significant decrease in estrogen-induced uterine weight
- IC50 [3]: 1.93 ± 0.07 µg/mL (≈ 7.09 µM)

Structure (SMILES): COc1ccc([C@@H]2CC(=O)c3c(O)cc(O[C@@H]4O[C@H](CO[C@@H]5O[C@@H](C)[C@H](O)[C@@H](O)[C@H]5O)[C@@H](O)[C@H](O)[C@H]4O)cc3O2)cc1O [C5, 5,3′-dihydroxy-4′-methoxy flavanone-7O-α-L-rhamnopyranosyl (1 → 6)β-D-glucopyranoside]
- IC50 values, cytotoxic effect on HFB4 [11]: – ((−) no activity in a concentration up to 50 µg/mL)
- IC50 values, cytotoxic effect on MCF7 ([2]; ± SD): – ((−) no activity in a concentration up to 50 µg/mL)
- IC50 values, cytotoxic effect on T47D [3]: – ((−) no activity in a concentration up to 50 µg/mL)

Structure (SMILES): COc1ccc(C2CC(=O)c3c(O)cc(O)cc3O2)cc1O (centres unmarked) [C6, 5,7,3′-trihydroxy-4′-methoxy flavanone]
- IC50 [1]: > 50 µg/mL
- IC50 [2]: 4.96 ± 0.89 µg/mL (≈ 16.4 µM)
- IC50 [3]: 3.53 ± 0.19 µg/mL (≈ 11.7 µM)

Structure (SMILES): C[C@@H]1O[C@@H](OC[C@H]2O[C@@H](Oc3c(-c4ccc(O)c(O)c4)oc4cc(O)cc(O)c4c3=O)[C@H](O)[C@@H](O)[C@@H]2O)[C@H](O)[C@H](O)[C@H]1O [C7, 5,7,3′,4′-tetrahydroxy flavon-3O-α-L-rhamnopyranosyl (1 → 6)β-D-glucopyranoside]
- IC50 [1]: > 50 µg/mL
- IC50 [2]: > 50 µg/mL
- IC50 [3]: > 50 µg/mL

Structure (SMILES): C[C@@H]1O[C@@H](O[C@H]2[C@H](Oc3cc(O)c4c(c3)O[C@H](c3ccc(O)cc3)CC4=O)O[C@H](CO)[C@@H](O)[C@@H]2O)[C@H](O)[C@H](O)[C@H]1O [C8]
- estrogenic and anti-estrogenic activities [9]: double directional estrogenic and anti-estrogenic activities
- IC50 [1]: > 50 µg/mL
- decrease in tumor volume compared to positive control [4]: 71.47%
- reversal of estradiol-induced vaginal cornification [5]: not fully reversed
- reduction in uterine weight compared to estradiol alone [5]: 57.7%
- day on which vaginal opening reached 100% [5]: 7 days
- day on which vaginal opening started (delay up to day) [5]: 3 days
- IC50 [12]: 3.26 µM
- average uterine weight ([6]; 7 days, no estradiol): 17.0 ± 2.6 mg
- aromatase levels in tumors, lower than positive control group [7]: 59.36%
- IC50 [2]: 2 ± 0.98 µg/mL (≈ 3.45 µM)
- IC50 [3]: 3.63 ± 0.1 µg/mL (≈ 6.25 µM)

Structure (SMILES): C[C@]12CC[C@@H]3c4ccc(OC(=O)c5ccccc5)cc4CC[C@H]3[C@@H]1CC[C@@H]2O [estradiol, Estradiol benzoate, reference compound]
- body weight ([5]; 7 days treatment): 15.6 ± 1.8 g
- uterine weight ([5]; estradiol alone 12.5 µg/kg s.c.): 215.0 ± 64.4 mg
- day on which vaginal opening reached 100% [5]: 5 days
- day on which vaginal opening started (delay up to day) [5]: 2 days

Structure (SMILES): O=c1c(-c2ccc(O)cc2)coc2cc(O)cc(O)c12 [genistein, reference compound]
- average uterine weight ([6]; 7 days, no estradiol): 20.0 ± 7.5 mg
- vaginal cornification ([6]; day 7 swab): mild vaginal cornification
